Patent US20070049564A1 (Wyeth, priority 2005, published 2007)
In brackets after ≈: the same amount, converted by molar mass. Read-outs that look alike come from different tables or passages of the source.

Tests used:
Experiment in all cases: MIC, broth microdilution
[1] = system: S. aureus GC 6467; conditions: Staphylococcus aureus
[2] = system: P. aeruginosa GC 2214; conditions: Pseudomonas aeruginosa
[3] = system: E. coli GC 2270; conditions: Escherichia coli
[4] = system: S. aureus GC 6469; conditions: Staphylococcus aureus
[5] = system: S. epidermidis GC 4935; conditions: Staphylococcus epidermidis
[6] = system: E. faecium GC 2243; conditions: Enterococcus faecium
[7] = system: E. coli GC 2203; conditions: Escherichia coli
[8] = system: E. coli GC 2233; conditions: Escherichia coli
[9] = system: c. albicans GC 3066
[10] = system: E. coli GC 3226; conditions: Escherichia coli
[11] = system: S. aureus GC 1079; conditions: Staphylococcus aureus
[12] = system: E. faecalis GC 2267; conditions: Enterococcus faecalis
[13] = system: E. coli GC 2272; conditions: Escherichia coli
[14] = system: S. aureus GC 6335; conditions: Staphylococcus aureus
[15] = system: S. aureus GC 1131; conditions: Staphylococcus aureus
[16] = system: E. faecalis GC 2265; conditions: Enterococcus faecalis
[17] = system: E. coli GC 2271; conditions: Escherichia coli
[18] = system: E. coli GC 6465; conditions: Escherichia coli
[19] = system: E. coli GC 1073; conditions: Escherichia coli
[20] = system: E. coli GC 4560; conditions: Escherichia coli

- MIC ([1]; GC6467, read-out: MINIMAL INHIBITORY CONCENTRATION MIC, Human Serum): 0.5 µg/mL (≈ 0.648 µM)
- MIC ([1]; GC6467, read-out: MINIMAL INHIBITORY CONCENTRATION MIC, Mouse Serum): 1 µg/mL (≈ 1.3 µM)
- MIC ([1]; GC6467, read-out: MINIMAL INHIBITORY CONCENTRATION MIC, Water): 2 µg/mL (≈ 2.59 µM)
- MIC ([2]; GC2214, read-out: MINIMAL INHIBITORY CONCENTRATION MIC, Human Serum): > 64 µg/mL
- MIC ([2]; GC2214, read-out: MINIMAL INHIBITORY CONCENTRATION MIC, Mouse Serum): 16 µg/mL (≈ 20.7 µM)
- MIC ([2]; GC2214, read-out: MINIMAL INHIBITORY CONCENTRATION MIC, Water): > 64 µg/mL
- MIC ([3]; GC2270, read-out: MINIMAL INHIBITORY CONCENTRATION MIC, Human Serum): 16 µg/mL (≈ 20.7 µM)
- MIC ([3]; GC2270, read-out: MINIMAL INHIBITORY CONCENTRATION MIC, Mouse Serum): 0.5 µg/mL (≈ 0.648 µM)
- MIC ([3]; GC2270, read-out: MINIMAL INHIBITORY CONCENTRATION MIC, Water): 64 µg/mL (≈ 82.9 µM)
- MIC ([4]; GC6469, read-out: MINIMAL INHIBITORY CONCENTRATION MIC, Human Serum): 1 µg/mL (≈ 1.3 µM)
- MIC ([4]; GC6469, read-out: MINIMAL INHIBITORY CONCENTRATION MIC, Mouse Serum): 0.5 µg/mL (≈ 0.648 µM)
- MIC ([4]; GC6469, read-out: MINIMAL INHIBITORY CONCENTRATION MIC, Water): 1 µg/mL (≈ 1.3 µM)
- MIC ([5]; GC4935, read-out: MINIMAL INHIBITORY CONCENTRATION MIC, Human Serum): 0.5 µg/mL (≈ 0.648 µM)
- MIC ([5]; GC4935, read-out: MINIMAL INHIBITORY CONCENTRATION MIC, Mouse Serum): 0.5 µg/mL (≈ 0.648 µM)
- MIC ([5]; GC4935, read-out: MINIMAL INHIBITORY CONCENTRATION MIC, Water): 1 µg/mL (≈ 1.3 µM)
- MIC ([6]; GC2243, read-out: MINIMAL INHIBITORY CONCENTRATION MIC, Human Serum): 0.25 µg/mL (≈ 0.324 µM)
- MIC ([6]; GC2243, read-out: MINIMAL INHIBITORY CONCENTRATION MIC, Mouse Serum): 0.25 µg/mL (≈ 0.324 µM)
- MIC ([6]; GC2243, read-out: MINIMAL INHIBITORY CONCENTRATION MIC, Water): 0.5 µg/mL (≈ 0.648 µM)
- MIC ([7]; GC2203, read-out: MINIMAL INHIBITORY CONCENTRATION MIC, Human Serum): 16 µg/mL (≈ 20.7 µM)
- MIC ([7]; GC2203, read-out: MINIMAL INHIBITORY CONCENTRATION MIC, Mouse Serum): 0.25 µg/mL (≈ 0.324 µM)
- MIC ([7]; GC2203, read-out: MINIMAL INHIBITORY CONCENTRATION MIC, Water): 64 µg/mL (≈ 82.9 µM)
- MIC ([8]; GC2233, read-out: MINIMAL INHIBITORY CONCENTRATION MIC, Human Serum): 16 µg/mL (≈ 20.7 µM)
- MIC ([8]; GC2233, read-out: MINIMAL INHIBITORY CONCENTRATION MIC, Mouse Serum): 0.25 µg/mL (≈ 0.324 µM)
- MIC ([8]; GC2233, read-out: MINIMAL INHIBITORY CONCENTRATION MIC, Water): 64 µg/mL (≈ 82.9 µM)
- MIC ([9]; Candida albicans, GC3066, read-out: MINIMAL INHIBITORY CONCENTRATION MIC): > 64 µg/mL
- MINIMAL INHIBITORY CONCENTRATION MIC ([9]; Human Serum): >64 UG/ML
- MINIMAL INHIBITORY CONCENTRATION MIC ([9]; Mouse Serum): >64 UG/ML
- MIC ([10]; GC3226, read-out: MINIMAL INHIBITORY CONCENTRATION MIC, Human Serum): 32 µg/mL (≈ 41.5 µM)
- MIC ([10]; GC3226, read-out: MINIMAL INHIBITORY CONCENTRATION MIC, Mouse Serum): 0.5 µg/mL (≈ 0.648 µM)
- MIC ([10]; GC3226, read-out: MINIMAL INHIBITORY CONCENTRATION MIC, Water): > 64 µg/mL
- MIC ([11]; GC1079, read-out: MINIMAL INHIBITORY CONCENTRATION MIC, Human Serum): 0.25 µg/mL (≈ 0.324 µM)
- MIC ([11]; GC1079, read-out: MINIMAL INHIBITORY CONCENTRATION MIC, Mouse Serum): 0.25 µg/mL (≈ 0.324 µM)
- MIC ([11]; GC1079, read-out: MINIMAL INHIBITORY CONCENTRATION MIC, Water): 1 µg/mL (≈ 1.3 µM)
- MIC ([12]; GC2267, read-out: MINIMAL INHIBITORY CONCENTRATION MIC, Human Serum): 1 µg/mL (≈ 1.3 µM)
- MIC ([12]; GC2267, read-out: MINIMAL INHIBITORY CONCENTRATION MIC, Mouse Serum): 0.5 µg/mL (≈ 0.648 µM)
- MIC ([12]; GC2267, read-out: MINIMAL INHIBITORY CONCENTRATION MIC, Water): 2 µg/mL (≈ 2.59 µM)
- MIC ([13]; GC2272, read-out: MINIMAL INHIBITORY CONCENTRATION MIC, Human Serum): 8 µg/mL (≈ 10.4 µM)
- MIC ([13]; GC2272, read-out: MINIMAL INHIBITORY CONCENTRATION MIC, Mouse Serum): 0.25 µg/mL (≈ 0.324 µM)
- MIC ([13]; GC2272, read-out: MINIMAL INHIBITORY CONCENTRATION MIC, Water): 64 µg/mL (≈ 82.9 µM)
- MIC ([14]; GC6335, read-out: MINIMAL INHIBITORY CONCENTRATION MIC, Human Serum): 2 µg/mL (≈ 2.59 µM)
- MIC ([14]; GC6335, read-out: MINIMAL INHIBITORY CONCENTRATION MIC, Mouse Serum): 2 µg/mL (≈ 2.59 µM)
- MIC ([14]; GC6335, read-out: MINIMAL INHIBITORY CONCENTRATION MIC, Water): 2 µg/mL (≈ 2.59 µM)
- MIC ([15]; GC1131, read-out: MINIMAL INHIBITORY CONCENTRATION MIC, Human Serum): 0.25 µg/mL (≈ 0.324 µM)
- MIC ([15]; GC1131, read-out: MINIMAL INHIBITORY CONCENTRATION MIC, Mouse Serum): 0.25 µg/mL (≈ 0.324 µM)
- MIC ([15]; GC1131, read-out: MINIMAL INHIBITORY CONCENTRATION MIC, Water): 0.25 µg/mL (≈ 0.324 µM)
- MIC ([16]; GC2265, read-out: MINIMAL INHIBITORY CONCENTRATION MIC, Human Serum): 1 µg/mL (≈ 1.3 µM)
- MIC ([16]; GC2265, read-out: MINIMAL INHIBITORY CONCENTRATION MIC, Mouse Serum): 0.5 µg/mL (≈ 0.648 µM)
- MIC ([16]; GC2265, read-out: MINIMAL INHIBITORY CONCENTRATION MIC, Water): 2 µg/mL (≈ 2.59 µM)
- MIC ([17]; GC2271, read-out: MINIMAL INHIBITORY CONCENTRATION MIC, Human Serum): 8 µg/mL (≈ 10.4 µM)
- MIC ([17]; GC2271, read-out: MINIMAL INHIBITORY CONCENTRATION MIC, Mouse Serum): 0.25 µg/mL (≈ 0.324 µM)
- MIC ([17]; GC2271, read-out: MINIMAL INHIBITORY CONCENTRATION MIC, Water): 32 µg/mL (≈ 41.5 µM)
- MIC ([18]; GC6465, read-out: MINIMAL INHIBITORY CONCENTRATION MIC, Human Serum): > 64 µg/mL
- MIC ([18]; GC6465, read-out: MINIMAL INHIBITORY CONCENTRATION MIC, Mouse Serum): 2 µg/mL (≈ 2.59 µM)
- MIC ([18]; GC6465, read-out: MINIMAL INHIBITORY CONCENTRATION MIC, Water): > 64 µg/mL
- MIC ([19]; GC1073, read-out: MINIMAL INHIBITORY CONCENTRATION MIC, Human Serum): 32 µg/mL (≈ 41.5 µM)
- MIC ([19]; GC1073, read-out: MINIMAL INHIBITORY CONCENTRATION MIC, Mouse Serum): 0.5 µg/mL (≈ 0.648 µM)
- MIC ([19]; GC1073, read-out: MINIMAL INHIBITORY CONCENTRATION MIC, Water): 64 µg/mL (≈ 82.9 µM)
- MIC ([20]; GC4560, read-out: MINIMAL INHIBITORY CONCENTRATION MIC, Human Serum): 1 µg/mL (≈ 1.3 µM)
- MIC ([20]; GC4560, read-out: MINIMAL INHIBITORY CONCENTRATION MIC, Mouse Serum): 0.12 µg/mL (≈ 0.155 µM)
- MIC ([20]; GC4560, read-out: MINIMAL INHIBITORY CONCENTRATION MIC, Water): 2 µg/mL (≈ 2.59 µM)
SMILES: CCCCCCC(=O)OCOC(=O)N(CC(=O)Nc1cc(N(C)C)c2c(c1O)C(=O)C1=C(O)[C@]3(O)C(=O)C(C(N)=O)=C(O)[C@@H](N(C)C)[C@@H]3C[C@@H]1C2)C(C)(C)C [Example 48, ({[(2-{[(5aR,6aS,7S,10aS)-9-(aminocarbonyl)-4,7-bis(dimethylamino)-1,8,10a,11-tetrahydroxy-10,12-dioxo-5,5a,6,6a,7,10,10a,12-octahydrotetracen-2-yl]amino}-2-oxoethyl)(tert-butyl)amino]carbonyl}oxy)methyl heptanoate]
